Patent publication US12161722B2, “Bifunctional heterocyclic compound having BTK degradation function via ubiquitin proteasome pathway, and use thereof” (KOREA RESEARCH INSTITUTE OF CHEMICAL TECHNOLOGY, priority 2021, dated 2024)

The molecules below were run against T1, WT BTK protein (Homo sapiens, UniProt Q06187) (assay: BTK protein degradation assay (Western blotting), WT BTK). Settings: concentration range accounting for 50% degradation of WT BTK protein, TMD-8 or RAMOS cells, 24 hours.
T1 construct: measured for intracellular BTK protein levels by Western blotting; endogenous in cells; host or cells: TMD-8 or RAMOS cells
Type: cell-based
Experimental: TMD-8, RAMOS, or 293T BTK MUT (C481S) cells were treated with the synthesized compounds and measured for intracellular BTK protein levels by Western blotting. The protocol of the experiment using TMD-8 cells is as follows.
TMD-8 cells were resuspended in an RPMI1640 medium (Hyclone, SH30027.01, 10% FBS (Hyclone, SV30207.02), 1% penicillin-streptomycin (Welgene, LS 202-02) and the cell suspension was seeded at a density of 1×10^6 cells/mL in an amount of 1 mL per well into 12-well plates.
The 12-well plates were treated as follows. A 10 mM stock was 1/10 diluted in series with DMSO ([…]) to form final concentrations of 10, 1, 0.1, 0.01, 0.001, and 0.0001 mM. The compounds with such concentrations were applied to cells, followed by harvesting the cells 24 hours later. For a negative control, a 1/10 dilution of DMSO in the medium (3 mL DMSO+27 mL medium) was used.
The 1-mL cell culture in each well was passed many times through a pipette and then transferred into a 1.5-mL microtube before centrifugation (500 g, 5 min, 4° C.). The supernatant was discarded and the cell pellet was washed with PBS. After centrifugation (500 g, 5 min, 4° C.) again, the supernatant was discarded and the cell pellet was taken.
A lysis buffer was prepared as follows. RIPA buffer (Biosesang, RC2038-050-00)+0.5 mM PMSF (SIGMA, P7626)+1×Protease/Phosphatase Inhibitor (Cell signaling, 5872S) was added in an amount […] per well and left for 30 minutes on ice (vortexing at 0 and 30 minutes) before sonication (5 cycles of pulse for 10 seconds and rest for 30 seconds, 70% amplification). The supernatant obtained by centrifugation (15000 g, 15 min, 4° C.) was transferred into a new microtube. Cells in each well of 96-well plates were 1/2 diluted with the RIPA buffer and incubated at 37° C. for 30 minutes with […] of a 50:1 mixture of BCA reagents A and B in BCA Protein Assay Kit (iNtRON, 21071). After being cooled for 10 minutes, the 96-well plates were measured for absorbance at 562 nm on the BioTek, SYNERGY H1 microplate reader. Samples were prepared by protein quantification based on the absorbance measurements and then boiled at 70° C. for 10 minutes. The sample buffer used in the case was prepared by mixing a NuPAGE or a Bolt 4× sample buffer (Invitrogen) and its 10× sample reducing agent depending on the gel to be used, and protein dilution was made in a RIPI buffer.
The samples were loaded in the same amount into a NuPAGE or Bolt Bis-tris 4-12% gradient gel and allowed to run therein (200 V, 35 minutes). The separated proteins were transferred onto a […] NC membrane, using Trans-blot Turbo (BIO-RAD) (1.3 A constant, 25V limit, 15 minutes). The membrane was blocked at room temperature for 1 hour with skim milk or Intercept Blocking Buffer (LI-COR, 927-60001):0.1% TBST=1:1. The membrane was incubated with Anti BTK Rabbit (1:1,000 in 5% skim milk/0.2% TBST, size: 77 kDa, Cell signaling Technology) at 4° C. overnight O/N or at room temperature for 2 hours and with Anti GAPDH Rabbit (1:10,000 in 5% BSA/0.2% TBST, size: 36 kDa, GENETEX) and Anti β-actin mouse (1:10,000 in 5% BSA/0.2% TBST, RT, size: 43 kDa, GENETEX) at room temperature for 1 or 3 hours. Then, the membrane was washed three times with 0.5% TBST for 5 minutes each time before incubation with the second antibody Anti-Rabbit IgG (1:5,000 in 5% Skim milk/TBST, CST), IRDye® 800CW Goat anti-Rabbit IgG Secondary Antibody (1:10,000 in 5% skim/TBST, RT 45 min), or IRDye® 680RD Goat anti-Mouse IgG Secondary Antibody (1:10,000 in 5% skim/TBST, RT 45 min) for 45 minutes at room temperature in a rocker. The membrane was washed five times with 0.5% TBST for 5 minutes in each time, followed by detection with LI-COR, Odyssey. In this regard, the detection proceeded, as it was, for house-keeping genes while using SuperSignal West Pico PLUS Chemiluminescent Substrate or SuperSignal West femto Maximum Sensitivity Substrate for BTK detection. […]

T1 sequence (Q06187 whole entry): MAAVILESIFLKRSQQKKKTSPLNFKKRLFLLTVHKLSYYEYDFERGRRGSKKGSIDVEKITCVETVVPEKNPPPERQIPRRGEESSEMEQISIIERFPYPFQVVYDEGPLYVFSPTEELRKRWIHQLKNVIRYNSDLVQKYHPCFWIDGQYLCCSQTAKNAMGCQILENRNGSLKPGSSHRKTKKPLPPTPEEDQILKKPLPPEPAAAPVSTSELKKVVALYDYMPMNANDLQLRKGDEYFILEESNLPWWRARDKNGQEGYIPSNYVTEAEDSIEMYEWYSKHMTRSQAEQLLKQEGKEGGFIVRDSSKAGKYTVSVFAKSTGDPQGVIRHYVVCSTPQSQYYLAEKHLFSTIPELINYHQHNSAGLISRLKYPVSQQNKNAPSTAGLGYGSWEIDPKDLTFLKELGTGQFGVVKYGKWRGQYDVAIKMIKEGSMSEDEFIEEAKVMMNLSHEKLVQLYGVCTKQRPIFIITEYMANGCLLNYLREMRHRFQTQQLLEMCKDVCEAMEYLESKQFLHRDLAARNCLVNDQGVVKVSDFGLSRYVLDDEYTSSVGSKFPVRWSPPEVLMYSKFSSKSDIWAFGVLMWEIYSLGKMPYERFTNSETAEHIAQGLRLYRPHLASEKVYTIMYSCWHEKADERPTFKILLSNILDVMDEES

| SMILES | DC50 [µM] |
| --- | --- |
| Cc1cccc(C)c1Nc1nn(C)c2nc(Nc3ccc4c(c3)C(C)N(CC3CCN(c5ccc6c(c5)C(=O)N(C5CCC(=O)NC5=O)C6=O)CC3)CC4)ncc12 (centres unmarked) [Compound 75, 5-(4-((7-((3-((2,6-Dimethylphenyl)amino)-1-methyl-1H-pyrazolo[3,4-d]pyrimidin-6-yl)amino)-1-methyl-3,4-dihydroisoquinolin-2 (1H)-yl)methyl)piperidin-1-yl)-2-(2,6-dioxopiperidin-3-yl)isoindoline-1,3-dione] | 0.01 to 1 |
| Cc1cccc(C)c1Nc1nn(C)c2nc(Nc3ccc4c(c3)CN(C(=O)CNc3ccc5c(c3)CN(C3CCC(=O)NC3=O)C5=O)CC4)ncc12 (centres unmarked) [Compound 81, 3-(5-((2-(7-((3-((2,6-Dimethylphenyl)amino)-1-methyl-1H-pyrazolo[3,4-d]pyrimidin-6-yl)amino)-3,4-dihydroisoquinolin-2 (1H)-yl)-2-oxoethyl)amino)-1-oxoisoindolin-2-yl)piperidin-2,6-one] | 0.0001 to 0.01 |
| Cn1nc(Nc2c(Cl)cccc2Cl)c2cnc(Nc3ccc4c(c3)CN(CC3CCN(c5ccc6c(c5)C(=O)N(C5CCC(=O)NC5=O)C6=O)CC3)CC4)nc21 (centres unmarked) [Compound 82, 5-(4-((7-((3-((2,6-Dichlorophenyl)amino)-1-methyl-1H-pyrazolo[3,4-d]pyrimidin-6-yl)amino)-3,4-dihydroisoquinolin-2 (1H)-yl)methyl)piperidin-1-yl)-2-(2,6-dioxopiperidin-3-yl)isoindoline-1,3-dione] | 0.0001 to 0.01 |
| Cc1ccc(Nc2nn(C)c3nc(Nc4ccc5c(c4)CN(CC4CCN(c6ccc7c(c6)C(=O)N(C6CCC(=O)NC6=O)C7=O)CC4)CC5)ncc23)c(C)c1 (centres unmarked) [Compound 83, 5-(4-((7-((3-((2,4-Dimethylphenyl)amino)-1-methyl-1H-pyrazolo[3,4-d]pyrimidin-6-yl)amino)-3,4-dihydroisoquinolin-2 (1H)-yl)methyl)piperidin-1-yl)-2-(2,6-dioxopiperidin-3-yl)isoindoline-1,3-dione] | 0.01 to 1 |
| Cc1ccccc1Nc1nn(C)c2nc(Nc3ccc4c(c3)CN(CC3CCN(c5ccc6c(c5)C(=O)N(C5CCC(=O)NC5=O)C6=O)CC3)CC4)ncc12 (centres unmarked) [Compound 84, 2-(2,6-Dioxopiperidin-3-yl)-5-(4-((7-((1-methyl-3-(o-tolylamino)-1H-pyrazolo[3,4-d]pyrimidin-6-yl)amino)-3,4-dihydroisoquinolin-2 (1H)-yl)methyl)piperidin-1-yl)isoindoline-1,3-dione] | 0.0001 to 0.01 |
| Cc1cccc(C)c1Nc1nn(C)c2nc(Nc3ccc4c(c3)CN(CC3CCN(CC(=O)Nc5ccc6c(c5)C(=O)N(C5CCC(=O)NC5=O)C6=O)CC3)CC4)ncc12 (centres unmarked) [Compound 90, 2-(4-((7-((3-((2,6-Dimethylphenyl)amino)-1-methyl-1H-pyrazolo[3,4-d]pyrimidin-6-yl)amino)-3,4-dihydroisoquinolin-2 (1H)-yl)methyl)piperidin-1-yl)-N-(2-(2,6-dioxopiperidin-3-yl)-1,3-dioxoisoindolin-5-yl)acetamide] | 0.01 to 1 |
| Cc1cccc(C)c1Nc1nn(C)c2nc(Nc3ccc4c(c3)CN(CC3CCN(CC(=O)Nc5ccc6c(c5)CN(C5CCC(=O)NC5=O)C6=O)CC3)CC4)ncc12 (centres unmarked) [Compound 91, 2-(4-((7-((3-((2,6-Dimethylphenyl)amino)-1-methyl-1H-pyrazolo[3,4-d]pyrimidin-6-yl)amino)-3,4-dihydroisoquinolin-2 (1H)-yl)methyl)piperidin-1-yl)-N-(2-(2,6-dioxopiperidin-3-yl)-1-oxoisoindolin-5-yl)acetamide] | 0.0001 to 0.01 |
| Cc1cccc(C)c1Nc1nn(C)c2nc(Nc3ccc4c(c3)CN(CC3CCN(C(=O)Nc5ccc6c(c5)CN(C5CCC(=O)NC5=O)C6=O)CC3)CC4)ncc12 (centres unmarked) [Compound 92, 4-((7-((3-((2,6-Dimethylphenyl)amino)-1-methyl-1H-pyrazolo[3,4-d]pyrimidin-6-yl)amino)-3,4-dihydroisoquinolin-2 (1H)-yl)methyl)-N-(2-(2,6-dioxopiperidin-3-yl)-1-oxoisoindolin-5-yl)piperidine-1-carboxamide] | 0.0001 to 0.01 |

Second part, the molecule after the results:

| DC50 [µM] | SMILES |
| --- | --- |
| 0.01 to 1 | Cc1cccc(C)c1Nc1nn(C)c2nc(Nc3ccc4c(c3)CN(C(=O)CNc3ccc5c(c3)C(=O)N(C3CCC(=O)NC3=O)C5=O)CC4)ncc12 (centres unmarked) [Compound 72, 5-((2-(7-((3-((2,6-Dimethylphenyl)amino)-1-methyl-1H-pyrazolo[3,4-d]pyrimidin-6-yl)amino)-3,4-dihydroisoquinolin-2 (1H)-yl)-2-oxoethyl)amino)-2-(2,6-dioxopiperidin-3-yl)isoindoline-1,3-dione] |
| 0.01 to 1 | Cc1cccc(C)c1Nc1nn(C)c2nc(Nc3ccc4c(c3)CN(CC3CCN(c5ccc6c(c5)C(=O)N(C5CCC(=O)NC5=O)C6=O)CC3)C4)ncc12 (centres unmarked) [Compound 73, 5-(4-((5-((3-((2,6-Dimethylphenyl)amino)-1-methyl-1H-pyrazolo[3,4-d]pyrimidin-6-yl)amino)isoindolin-2-yl)methyl)piperidin-1-yl)-2-(2,6-dioxopiperidin-3-yl)isoindoline-1,3-dione] |
| 0.01 to 1 | Cc1cccc(C)c1Nc1nn(C)c2nc(Nc3ccc4c(c3)CN(CC3CCN(c5ccc6c(=O)n(C7CCC(=O)NC7=O)nnc6c5)CC3)C4)ncc12 (centres unmarked) [Compound 74, 3-(7-(4-((5-((3-((2,6-Dimethylphenyl)amino)-1-methyl-1H-pyrazolo[3,4-d]pyrimidin-6-yl)amino)isoindolin-2-yl)methyl)piperidin-1-yl)-4-oxobenzo[d][1,2,3]triazin-3 (4H)-yl)piperidin-2,6-one] |
| 0.01 to 1 | COCCOc1cc(C)c(Nc2nn(C)c3nc(Nc4ccc5c(c4)CN(CC4CCN(c6ccc7c(c6)C(=O)N(C6CCC(=O)NC6=O)C7=O)CC4)CC5)ncc23)c(C)c1 (centres unmarked) [Compound 76, 2-(2,6-Dioxopiperidin-3-yl)-5-(4-((7-((3-((4-(2-methoxyethoxy)-2,6-dimethylphenyl)amino)-1-methyl-1H-pyrazolo[3,4-d]pyrimidin-6-yl)amino)-3,4-dihydroisoquinolin-2 (1H)-yl)methyl)piperidin-1-yl)isoindoline-1,3-dione] |
| 0.0001 to 0.01 | Cc1cccc(C)c1Nc1nn(C)c2nc(Nc3ccc4c(c3)CN(CC3CCN(C(=O)CNc5ccc6c(c5)CN(C5CCC(=O)NC5=O)C6=O)CC3)CC4)ncc12 (centres unmarked) [Compound 80, 3-(5-((2-(4-((7-((3-((2,6-Dimethylphenyl)amino)-1-methyl-1H-pyrazolo[3,4-d]pyrimidin-6-yl)amino)-3,4-dihydroisoquinolin-2 (1H)-yl)methyl)piperidin-1-yl)-2-oxoethyl)amino)-1-oxoisoindolin-2-yl)piperidin-2,6-one] |
| 0.0001 to 0.01 | Cc1cccc(C)c1Nc1nn(C(C)C)c2nc(Nc3ccc4c(c3)CN(CC3CCN(c5ccc6c(c5)C(=O)N(C5CCC(=O)NC5=O)C6=O)CC3)CC4)ncc12 (centres unmarked) [Compound 86, 5-(4-((7-((3-((2,6-Dimethylphenyl)amino)-1-isopropyl-1H-pyrazolo[3,4-d]pyrimidin-6-yl)amino)-3,4-dihydroisoquinolin-2 (1H)-yl)methyl)piperidin-1-yl)-2-(2,6-dioxopiperidin-3-yl)isoindoline-1,3-dione] |
